Data published in patent EP0641564A1, “OPTICALLY ACTIVE CONDENSED PYRAZOLE COMPOUND FOR USE IN TREATING THROMBOCYTOPENIA AND ERYTHROPENIA” (YOSHITOMI PHARMACEUTICAL INDUSTRIES, LTD., priority 1992, dated 1993).

What was measured:
[1] = test system: mice transplanted with bone marrow; assay: Promoting action on recovery of leukocyte count in mice transplanted with bone marrow; assay type: in vivo, ICR mice; conditions: for Leukocyte count: X-irradiation (8.0 Gy)+bone marrow transplantation (day 0, 7, 14); for Leukocyte count / Increase in leukocyte count: day 38; for Increase in leukocyte count: relative ratio of increased count to decreased count of bone marrow transplanted mice
Method: Experimental Example 8 : Promoting action on recovery of leukocyte count in mice transplanted with bone marrow
ICR mice (6-8 weeks old) were exposed to 8.0 Gy total body irradiation and 10⁷ bone marrow cells from the mice of the same species were transplanted to the mice. The bone marrow transplantation was performed three times on day 0, day 7 and day 14. Then, the compound of the present invention was intravenously administered for 14 consecutive days starting from the next day of the first bone marrow transplantation. On day 38 after the first bone marrow transplantation, blood was taken and leukocyte count was measured using an automatic cell counter. The experiment was done with 5 mice per group. The relative ratio of the increased leukocyte count to the decreased leukocyte count of the mice transplanted with bone marrow was calculated and expressed in percentage.

[2] = test system: rats; assay: Acute toxicity test; assay type: in vivo; conditions: orally administered to rats, dose of 1000 mg/kg
Method: Experimental Example 9 : Acute toxicity test
Compound A, Compound B or Compound C was orally administered to rats. As a result, no death case was found at a dose of 1000 mg/kg.

[3] = test system: mice administered with cyclophosphamide; assay: Stimulating action on recovery of leukocyte count (cyclophosphamide-treated mice); assay type: in vivo, ICR mice; conditions: for Leukocyte count: cyclophosphamide 200 mg/kg i.p., day 4; for Increase in leukocyte count: relative ratio to count of mice administered with cyclophosphamide (=100)
Method: Experimental Example 7 : Stimulating action on recovery of leukocyte count
ICR mice (20-25 g body weight) were intraperitoneally administered with 200 mg/kg of cyclophosphamide and the compound of the present invention was intravenously administered for 3 days starting from the next day of the administration. On day 4 after the cyclophosphamide administration, the blood of the ICR mice was taken and leukocyte count was measured using Coulter counter. The relative ratio of the count to the peripheral leukocyte count of the mice administered with cyclophosphamide was calculated and expressed in percentage.

[4] = test system: mice transplanted with bone marrow; assay: Promoting action on recovery of platelet count in mice transplanted with bone marrow; assay type: in vivo, ICR mice; conditions: day 11; for Platelet count: X-irradiation (8.0 Gy)+bone marrow transplantation; for Increase in platelet count: difference between untreated group and bone marrow transplanted group = 100%
Description: Experimental Example 1 : Promoting action on recovery of platelet count in mice transplanted with bone marrow
ICR mice (6-8 weeks old) were exposed to 8.0 Gy total body irradiation and 10⁷ bone marrow cells from the mice of the same species were transplanted to the mice. Then, Compound A or Compound B was intravenously administered for 9 consecutive days starting from the next day of the bone marrow transplantation. On day 11 after the bone marrow transplantation, heparinized blood was taken from the abdominal aorta of mice and platelet count was measured using an automatic cell counter. The experiment was done with 5 mice per group. The difference in platelet count between an untreated group and the bone marrow transplanted group was taken as 100%, based on which increase in the platelet count was calculated.

[5] = test system: mice irradiated with X-rays; assay: Promoting action on recovery of erythrocyte count in mice irradiated with X-rays (preventive effects); assay type: in vivo, BALB/c mice; conditions: mean±SD
Method: Experimental Example 3 : Promoting action on recovery of erythrocyte count in mice irradiated with X-rays (preventive effects)
BALB/c mice (4-5 weeks old) were exposed to 4.0 Gy total body irradiation. Compound A was intravenously administered for 3 consecutive days starting from 3 days before and up to the previous day of the irradiation. On day 19 and day 22 after the X-ray irradiation, blood was taken from orbital vein plexus of mice and erythrocyte count was measured using an automatic cell counter. The experiment was done with 8 mice per group and the results are shown as mean value±standard deviation.

[6] = test system: mice irradiated with X-rays; assay: Promoting action on recovery of erythrocyte count in mice irradiated with X-rays (therapeutic effects); assay type: in vivo, BALB/c mice; conditions: day 14, mean±SD
Method: Experimental Example 4 : Promoting action on recovery of erythrocyte count in mice irradiated with X-rays (therapeutic effects)
BALB/c mice (4-5 weeks old) were exposed to 4.0 Gy total body irradiation. Compound A was intravenously administered for 9 consecutive days starting from the next day of the X-ray irradiation to 9 days thereafter. On day 14 after the X-ray irradiation, blood was taken from orbital vein plexus of mice and erythrocyte count was measured using an automatic cell counter. The experiment was done with 6 mice per group and the results are shown as mean value±standard deviation.

[7] = test system: rats administered with anti-tumor drug; assay: Promoting action on recovery of decreased platelet count in rats administered with anti-tumor drug (nimustine hydrochloride); assay type: in vivo, SD rats; conditions: 1.0 mg/kg i.v. on day 8, 9, 10 and 14 after initial nimustine hydrochloride
Method: Experimental Example 2 : Promoting action on recovery of decreased platelet count in rats administered with anti-tumor drug
An anti-tumor drug, nimustine hydrochloride, (30 mg/kg) was intravenously administered to SD rats (6 weeks old) and 15 mg/kg thereof was intravenously administered the next day. Compound A was intravenously administered for 4 days on day 8, day 9, day 10 and day 14 after the initial administration of nimustine hydrochloride. On certain days after the administration, heparinized blood was taken from the rat tail vein and platelet count was measured using an automatic cell counter. The experiment was done with 4-6 rats per group.

[8] = test system: mice transplanted with bone marrow; assay: Promoting action on recovery of erythrocyte count in mice transplanted with bone marrow; assay type: in vivo, ICR mice; conditions: X-irradiation (8.0 Gy)+bone marrow transplantation, day 11
Description: Experimental Example 5 : Promoting action on recovery of erythrocyte count in mice transplanted with bone marrow
ICR mice (6-8 weeks old) were exposed to 8.0 Gy total body irradiation and 10⁷ bone marrow cells from the mice of the same species were transplanted to the mice. Then, Compound A was intravenously administered for 9 consecutive days starting from the next day of the bone marrow transplantation. On day 11 after the bone marrow transplantation, heparinized blood was taken from the abdominal aorta of mice and erythrocyte count was measured using an automatic cell counter. The experiment was done with 5 mice per group.

[9] = 0.01 mg/kg i.v. for 14 consecutive days
[10] = 0.1 mg/kg i.v. for 14 consecutive days
[11] = 0.01 mg/kg i.v. for 3 consecutive days before 4.0 Gy irradiation
[12] = 0.1 mg/kg i.v. for 3 consecutive days before 4.0 Gy irradiation
[13] = 1 mg/kg i.v. for 3 consecutive days before 4.0 Gy irradiation

C[C@@H](CN(C)C)Oc1ccc(-c2nn(CC(=O)O)c3ncccc23)cc1 [Comp. B, (S)-3-[4-(2-dimethylamino-1-methylethoxy)phenyl]-1H-pyrazolo[3,4-b]pyridine-1-acetic acid]
Leukocyte count [1, 9]: 76±10 10²/mm³
Increase in leukocyte count ([1]; 0.01 mg/kg i.v.): 48%
Leukocyte count [1, 10]: 89±6 10²/mm³
Increase in leukocyte count ([1]; 0.1 mg/kg i.v.): 69%
strength of leukocyte count recovery effect relative to Compound A ([1]; bone marrow transplanted mice, comparison from Table 8): about ten times stronger effect
death cases (acute toxicity) [2]: no death case
Leukocyte count ([3]; 0.003 mg/kg i.v. for 3 days): 19±5 10²/mm³
Increase in leukocyte count ([3]; 0.003 mg/kg i.v.): 173%
Leukocyte count ([3]; 0.03 mg/kg i.v. for 3 days): 27±5 10²/mm³
Increase in leukocyte count ([3]; 0.03 mg/kg i.v.): 245%
Leukocyte count ([3]; 0.3 mg/kg i.v. for 3 days): 30±6 10²/mm³
Increase in leukocyte count ([3]; 0.3 mg/kg i.v.): 273%
strength of leukocyte count recovery effect relative to Compound A ([3]; cyclophosphamide-pretreated mice, comparison from Table 7): about three times stronger effect
Platelet count ([4]; Table 2, 0.01 mg/kg i.v. for 9 consecutive days): 45.9±6.7 10⁴/mm³
Increase in platelet count ([4]; Table 2, 0.01 mg/kg i.v.): 65%
Platelet count ([4]; Table 2, 0.03 mg/kg i.v. for 9 consecutive days): 54.8±13.6 10⁴/mm³
Increase in platelet count ([4]; Table 2, 0.03 mg/kg i.v.): 81%

CC(CN(C)C)Oc1ccc(-c2nn(CC(=O)O)c3ncccc23)cc1 (stereo not drawn) [Comp. A, 3-[4-(2-dimethylamino-1-methylethoxy)phenyl]-1H-pyrazolo[3,4-b]pyridine-1-acetic acid]
Leukocyte count [1, 9]: 65±7 10²/mm³
Increase in leukocyte count ([1]; 0.01 mg/kg i.v.): 30%
Leukocyte count [1, 10]: 75±5 10²/mm³
Increase in leukocyte count ([1]; 0.1 mg/kg i.v.): 46%
Leukocyte count ([1]; 1 mg/kg i.v. for 14 consecutive days): 81±4 10²/mm³
Increase in leukocyte count ([1]; 1 mg/kg i.v.): 56%
death cases (acute toxicity) [2]: no death case
Erythrocyte count day 19 [5, 11]: 835±102 10⁴/mm³
Erythrocyte count day 22 [5, 11]: 904±45 10⁴/mm³
Erythrocyte count day 19 [5, 12]: 837±118 10⁴/mm³
Erythrocyte count day 22 [5, 12]: 916±86 10⁴/mm³
Erythrocyte count day 19 [5, 13]: 856±118 10⁴/mm³
Erythrocyte count day 22 [5, 13]: 932±86 10⁴/mm³
Erythrocyte count ([6]; 0.01 mg/kg i.v. for 9 consecutive days after 4.0 Gy irradiation): 535±98 10⁴/mm³
Erythrocyte count ([6]; 0.1 mg/kg i.v. for 9 consecutive days after 4.0 Gy irradiation): 686±72 10⁴/mm³
Platelet count day 25 ([7]; day 25): 17.7±21.8 10⁴/mm³
Platelet count day 44 ([7]; day 44): 57.3±20.2 10⁴/mm³
Erythrocyte count ([8]; 0.01 mg/kg i.v. for 9 consecutive days): 699±51 10⁴/mm³
Erythrocyte count ([8]; 0.1 mg/kg i.v. for 9 consecutive days): 714±56 10⁴/mm³
Leukocyte count ([3]; 0.01 mg/kg i.v. for 3 days): 18±8 10²/mm³
Increase in leukocyte count ([3]; 0.01 mg/kg i.v.): 164%
Leukocyte count ([3]; 0.1 mg/kg i.v. for 3 days): 25±6 10²/mm³
Increase in leukocyte count ([3]; 0.1 mg/kg i.v.): 227%
Leukocyte count ([3]; 1 mg/kg i.v. for 3 days): 30±6 10²/mm³
Increase in leukocyte count ([3]; 1 mg/kg i.v.): 273%
Platelet count ([4]; Table 1, 0.01 mg/kg i.v. for 9 consecutive days): 27.4±9.6 10⁴/mm³
Increase in platelet count ([4]; Table 1, 0.01 mg/kg i.v.): 30%
Platelet count ([4]; Table 1, 0.03 mg/kg i.v. for 9 consecutive days): 31.4±11.4 10⁴/mm³
Increase in platelet count ([4]; Table 1, 0.03 mg/kg i.v.): 41%
Platelet count ([4]; Table 1, 0.1 mg/kg i.v. for 9 consecutive days): 42.3±10.6 10⁴/mm³
Increase in platelet count ([4]; Table 1, 0.1 mg/kg i.v.): 71%
Platelet count ([4]; Table 1, 0.3 mg/kg i.v. for 9 consecutive days): 49.8±9.7 10⁴/mm³
Increase in platelet count ([4]; Table 1, 0.3 mg/kg i.v.): 91%

CCOC(=O)Cn1nc(-c2ccc(O[C@@H](C)CN(C)C)cc2)c2cccnc21.Cl [Compound C, ethyl (S)-3-[4-(2-dimethylamino-1-methylethoxy)phenyl]-1H-pyrazolo[3,4-b]pyridine-1-acetate hydrochloride]
death cases (acute toxicity) [2]: no death case
